Measurements reported in patent US7696129B2, “Substituted aromatic amide derivative, intermediate thereof, agrohorticultural insecticide containing thereof and method for the use thereof” (Nihon Nohyaku Co., Ltd., priority 2001, dated 2010).

Assays:
Format in all cases: in vivo
[1] = tested on: Common Cutworm (Spodoptera litura); assay: Test Example 2: insecticidal effect on common cutworm, cabbage leaf immersion; conditions: cabbage leaf immersed about 30 seconds, second-instar larvae, 25° C., eight days after the inoculation; for Test Example 2 (insecticidal effect, mortality criterion): 50 ppm
Text: Insecticidal Effect on Common Cutworm (Spodoptera litura)
A piece of cabbage leaf (cultivar; Shikidori) was immersed for about 30 seconds in a liquid chemical prepared by diluting a preparation containing each compound listed in Tables 4 to 9 as an active ingredient to adjust the concentration to 50 ppm. After air-dryness, it was placed in a plastic Petri dish with a diameter of 9 cm and inoculated with second-instar larvae of common cutworm, after which the dish was closed and then allowed to stand in a room thermostatted at 25° C. Eight days after the inoculation, the dead and alive were counted. The mortality was calculated according to the following equation and the insecticidal effect was judged according to the criterion shown in Test Example 1. The test was carried out with triplicate groups of 10 insects.

[2] = tested on: Diamond Back Moth (Plutella xylostella); assay: Test Example 1: insecticidal effect on diamond back moth, immersion of Chinese cabbage seedling with eggs; conditions: seedling with eggs immersed about 30 seconds, 25° C., six days after the immersion; for Test Example 1 (insecticidal effect, mortality criterion): 50 ppm
Text: Insecticidal Effect on Diamond Back Moth (Plutella xylostella)
Adult diamond back moths were released and allowed to oviposit on a Chinese cabbage seedling. Two days after the release, the seedling having the eggs deposited thereon was immersed for about 30 seconds in a liquid chemical prepared by diluting a preparation containing each compound listed in Tables 4 to 9 as an active ingredient to adjust the concentration to 50 ppm. After air-dryness, it was allowed to stand in a room thermostatted at 25° C. Six days after the immersion, the hatched insects were counted. The mortality was calculated according to the following equation and the insecticidal effect was judged according to the criterion shown below. The test was carried out with triplicate groups of 10 insects.

[3] = tested on: Smaller Tea Tortrix (Adxophyes sp.); assay: Test Example 3: insecticidal effect on smaller tea tortrix, tea leaf immersion; conditions: 50 ppm, tea leaves immersed about 30 seconds, larvae, 25° C., humidity 70%, eight days after the inoculation
Procedure: Insecticidal Effect on Smaller Tea Tortrix (Adxophyes sp.)
Tea leaves were immersed for about 30 seconds in a liquid chemical prepared by diluting a preparation containing each compound listed in Tables 1 to 3 as an active ingredient to adjust the concentration to 50 ppm. After air-dryness, the tea leaves were placed in a plastic Petri dish with a diameter of 9 cm and inoculated with larvae of smaller tea tortrix, after which the dish was allowed to stand in a room thermostatted at 25° C. and having a humidity of 70%. Eight days after the inoculation, the dead and alive were counted and the insecticidal effect was judged according to the criterion shown in Test Example 1. The test was carried out with triplicate groups of 10 insects.

Row | Structure (SMILES) | Test Example 2 (insecticidal effect, mortality criterion) [1] | Test Example 1 (insecticidal effect, mortality criterion) [2] | Test Example 3 (insecticidal effect, mortality criterion) [3] | mortality at 50 ppm ([1]; Spodoptera litura, 192 h, read-out: Test Example 2 (insecticidal effect, mortality criterion)) | mortality at 50 ppm ([2]; Plutella xylostella, 144 h, read-out: Test Example 1 (insecticidal effect, mortality criterion))
1 | CSCC(C)(C)NC(=O)c1c(I)cccc1C(=O)Nc1ccc(C(C(F)(F)F)C(F)(F)F)cc1C#N [5-57] | A (Mortality 100%) | A (Mortality 100%) | A (Mortality 100%) |  | 
2 | CSCC(C)(C)NC(=O)c1c(C(=O)Nc2ccc(C(C(F)(F)F)C(F)(F)F)nc2C)cccc1[N+](=O)[O-] [8-7] | C (Mortality 89-80%) | A (Mortality 100%) | E (Mortality 49% or less) |  | 
3 | Cc1ccccc1CNC(=O)OCC(C)NC(=O)c1c(I)cccc1C(=O)Nc1ccc(C(C(F)(F)F)C(F)(F)F)cc1C (centres unmarked) [5-34] | A (Mortality 100%) | A (Mortality 100%) | A (Mortality 100%) |  | 
4 | Cc1cc(C(C(F)(F)F)C(F)(F)F)ccc1NC(=O)c1cccc(I)c1C1=NC(C)(C[S+](C)[O-])CO1 (centres unmarked) [10-3] | E (Mortality 49% or less) | A (Mortality 100%) | E (Mortality 49% or less) |  | 
5 | Cc1cc(C(C(F)(F)F)C(F)(F)F)ccc1NC(=O)c1ccccc1C(=O)NC(C)C [5-11] | E (Mortality 49% or less) | A (Mortality 100%) | A (Mortality 100%) |  | 
6 | C#CC(C)(C)NC(=O)c1c(I)cccc1C(=O)Nc1ccc(C(C(F)(F)F)C(F)(F)F)cc1C [5-24] | C (Mortality 89-80%) | A (Mortality 100%) | A (Mortality 100%) |  | 
7 | CCc1cc(C(C(F)(F)F)C(F)(F)F)ccc1NC(=O)c1cccc(I)c1C(=O)NC(C)(C)CSC [5-47] | A (Mortality 100%) | A (Mortality 100%) | A (Mortality 100%) |  | 
8 | Cc1cc(C(C(F)(F)F)C(F)(F)F)ccc1NC(=O)c1cccc(I)c1C(=O)NC(C)COC(=O)NCc1ccccc1 (centres unmarked) [5-33] | A (Mortality 100%) | A (Mortality 100%) | A (Mortality 100%) |  | 
9 | Cc1cc(C(C(F)(F)F)C(F)(F)F)c(F)cc1NC(=O)c1cccc(I)c1C(=O)NC(C)C [5-62] | A (Mortality 100%) | A (Mortality 100%) | A (Mortality 100%) |  | 
10 | CSCC(C)(C)NC(=O)c1c(I)cccc1C(=O)Nc1ccc(CC(F)(F)F)cc1C [5-1] | A (Mortality 100%) | A (Mortality 100%) | A (Mortality 100%) |  | 
11 | CSCC(C)(C)NC(=O)c1c(I)cccc1C(=O)Nc1ccc(CC(F)(F)C(F)(F)F)cc1F [5-6] | A (Mortality 100%) | A (Mortality 100%) | A (Mortality 100%) |  | 
12 | CSCC(C)(C)NC(=O)c1c(C(=O)Nc2ccc(C(C(F)(F)F)C(F)(F)F)cc2C)cccc1C(F)(F)F [5-41] | A (Mortality 100%) | A (Mortality 100%) | A (Mortality 100%) |  | 
13 | CSCC(C)(C)NC(=O)c1c(I)cccc1C(=O)Nc1ccc(C(C(F)(F)F)C(F)(F)F)cc1I [5-55] | A (Mortality 100%) | A (Mortality 100%) | A (Mortality 100%) |  | 
14 | C[S+]([O-])CC(C)(C)NC(=O)c1c(I)cccc1C(=O)Nc1ccc(C(C(F)(F)F)C(F)(F)F)cc1C#N (centres unmarked) [5-58] | A (Mortality 100%) | A (Mortality 100%) | A (Mortality 100%) |  | 
15 | Cc1nc(C(C(F)(F)F)C(F)(F)F)ccc1NC(=O)c1cccc([N+](=O)[O-])c1C(=O)NC(C)(C)CS(C)(=O)=O [8-9] | D (Mortality 79-50%) | A (Mortality 100%) | E (Mortality 49% or less) |  | 
16 | CCNC(=O)OCC(C)NC(=O)c1c(I)cccc1C(=O)Nc1ccc(C(C(F)(F)F)C(F)(F)F)cc1C (centres unmarked) [5-32] | A (Mortality 100%) | A (Mortality 100%) | A (Mortality 100%) |  | 
17 | Cc1cc(C(C(F)(F)F)C(F)(F)F)ccc1NC(=O)c1cccc(I)c1C(=O)NC(C)COC(=O)NCc1ccc(Cl)cc1 (centres unmarked) [5-37] | A (Mortality 100%) | A (Mortality 100%) | A (Mortality 100%) |  | 
18 | CON=CC(C)(C)NC(=O)c1c(Cl)cccc1C(=O)Nc1ccc(C(C(F)(F)F)C(F)(F)F)cc1C [5-18] | A (Mortality 100%) | A (Mortality 100%) | A (Mortality 100%) |  | 
19 | Cc1cc(C(C(F)(F)F)C(F)(F)F)ccc1NC(=O)c1cccc(I)c1C(=O)NC(C)COC(=O)NCc1ccc(C(F)(F)F)cc1 (centres unmarked) [5-35] | A (Mortality 100%) | A (Mortality 100%) | A (Mortality 100%) |  | 
20 | CSCC1(C)COC(c2c(I)cccc2C(=O)Nc2ccc(C(C(F)(F)F)C(F)(F)F)cc2C)=N1 (centres unmarked) [10-2] | E (Mortality 49% or less) | A (Mortality 100%) | E (Mortality 49% or less) |  | 
21 | CSCC(C)(C)NC(=O)c1c(I)cccc1C(=O)Nc1ccc(C(C(F)(F)F)C(F)(F)F)nc1Cl [Compound No. 8-4, N^2-(1,1-dimethyl-2-methylthioethyl)-3-iodo-N^1-{2-chloro-6-[2,2,2-trifluoro-1-(trifluoromethyl)ethyl]pyridin-3-yl}phthalamide] |  |  | A (Mortality 100%) | 100% | 100%
22 | CSCC(C)(C)NC(=O)c1c(I)cccc1C(=O)Nc1ccc(CC(F)(F)C(F)(F)C(F)(F)C(F)(F)C(F)(F)F)cc1CC(F)(F)C(F)(F)C(F)(F)C(F)(F)C(F)(F)F [5-8] | A (Mortality 100%) | A (Mortality 100%) | A (Mortality 100%) |  | 
23 | Cc1nc(C(C(F)(F)F)C(F)(F)F)ccc1NC(=O)c1cccc([N+](=O)[O-])c1C(=O)NC(C)(C)C[S+](C)[O-] (centres unmarked) [8-8] | E (Mortality 49% or less) | A (Mortality 100%) | E (Mortality 49% or less) |  | 
24 | CC(C)NC(=O)c1c(I)cccc1C(=O)Nc1ccc(C(C(F)(F)F)C(F)(F)F)cc1Cl [5-51] | A (Mortality 100%) | A (Mortality 100%) | A (Mortality 100%) |  | 
25 | Cc1cc(C(C(F)(F)F)C(F)(F)F)cc(C)c1NC(=O)c1cccc(I)c1C(=O)NC(C)C [5-67] | E (Mortality 49% or less) | A (Mortality 100%) | A (Mortality 100%) |  | 
26 | C[S+]([O-])CC(C)(C)NC(=O)c1c(I)cccc1C(=O)Nc1ccc(C(C(F)(F)F)C(F)(F)F)nc1Cl (centres unmarked) [8-5] | A (Mortality 100%) | A (Mortality 100%) | A (Mortality 100%) |  | 
27 | Cc1cc(C(C(F)(F)F)C(F)(F)F)ccc1NC(=O)c1cccc(I)c1C(=O)NC(C)(C)CC(C)(C)C [5-23] |  | A (Mortality 100%) | A (Mortality 100%) |  | 
